Test results published in patent US20150223463A1, “SPIROCYCLIC ISOXAZOLINE DERIVATIVES FOR TREATMENT OF SEA LICE” (Zoetis LLC, priority 2012, published 2015).

Tested on: Lepeophtheirus salmonis (sea lice)
Assay: Sea lice bioassay, 24 hours exposure to test compound
Format: in vivo
Settings: predominantly pre-adult and adult stage, generally chemical resistant strain

CS(=O)(=O)CC(=O)N1CC2(C1)OCc1cc(C3=NOC(c4cc(Cl)c(F)c(Cl)c4)(C(F)(F)F)C3)ccc12 (centres unmarked) [Example 1]
Adult Females (EC50) (adult female sea lice): 0.13 ppb | Adult Males (EC50) (adult male sea lice): 0.08 ppb
